What was measured:
Format in all cases: in vivo
[1] = system: oat, wild (wild oat, Avena fatua); assay: Test A preemergence soil spray, visual injury rating 0-100; conditions: 10 days, 0 = no effect, 100 = complete control
Procedure, shortened: (§1)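 Greenhouse test: loam/sand pots received a surfactant-containing formulation, as a preemergence directed soil spray or a postemergence spray on young plants. Injury was judged visually at day 10 relative to untreated controls.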

kochia (Bassia scoparia) [2] = assay: as above; conditions: 10 days, 0 = no effect, 100 = complete control
Procedure, shortened: as §1

[3] = system: wheat (Triticum aestivum); assay: as above; conditions: 10 days, 0 = no effect, 100 = complete control
Procedure, shortened: as §1

[4] = system: ragweed (common ragweed, Ambrosia artemisiifolia); assay: as above; conditions: 10 days, 0 = no effect, 100 = complete control
Procedure, shortened: as §1

soybean (Glycine max) [5] = assay: as above; conditions: 10 days, 0 = no effect, 100 = complete control
Procedure, shortened: as §1

[6] = system: blackgrass (Alopecurus myosuroides); assay: as above; conditions: 10 days, 0 = no effect, 100 = complete control
Procedure, shortened: as §1

corn (Zea mays) [7] = assay: as above; conditions: 10 days, 0 = no effect, 100 = complete control
Procedure, shortened: as §1

[8] = system: green foxtail (Setaria viridis); assay: as above; conditions: 10 days, 0 = no effect, 100 = complete control
Procedure, shortened: as §1

[9] = system: barnyardgrass (Echinochloa crus-galli); assay: as above; conditions: 10 days, 0 = no effect, 100 = complete control
Procedure, shortened: as §1

[10] = system: palmer (palmer amaranth, palmer pigweed, Amaranthus palmeri); assay: as above; conditions: 10 days, 0 = no effect, 100 = complete control
Procedure, shortened: as §1

[11] = system: ryegrass, Italian (italian ryegrass, Lolium multiflorum); assay: as above; conditions: 10 days, 0 = no effect, 100 = complete control
Procedure, shortened: as §1

[12] = system: oat, wild (wild oat, Avena fatua); assay: Test A postemergence application, visual injury rating 0-100; conditions: Postemergence, 10 days, 0 is no effect, 100 is complete control
Procedure, shortened: as §1

kochia (Bassia scoparia) [13] = assay: as above; conditions: Postemergence, 10 days, 0 is no effect, 100 is complete control
Procedure, shortened: as §1

[14] = system: wheat (Triticum aestivum); assay: as above; conditions: Postemergence, 10 days, 0 is no effect, 100 is complete control
Procedure, shortened: as §1

[15] = system: ragweed (common ragweed, Ambrosia artemisiifolia); assay: as above; conditions: Postemergence, 10 days, 0 is no effect, 100 is complete control
Procedure, shortened: as §1

soybean (Glycine max) [16] = assay: as above; conditions: Postemergence, 10 days, 0 is no effect, 100 is complete control
Procedure, shortened: as §1

[17] = system: blackgrass (Alopecurus myosuroides); assay: as above; conditions: Postemergence, 10 days, 0 is no effect, 100 is complete control
Procedure, shortened: as §1

corn (Zea mays) [18] = assay: as above; conditions: Postemergence, 10 days, 0 is no effect, 100 is complete control
Procedure, shortened: as §1

[19] = system: green foxtail (Setaria viridis); assay: as above; conditions: Postemergence, 10 days, 0 is no effect, 100 is complete control
Procedure, shortened: as §1

[20] = system: barnyardgrass (Echinochloa crus-galli); assay: as above; conditions: Postemergence, 10 days, 0 is no effect, 100 is complete control
Procedure, shortened: as §1

[21] = system: palmer (palmer amaranth, palmer pigweed, Amaranthus palmeri); assay: as above; conditions: Postemergence, 10 days, 0 is no effect, 100 is complete control
Procedure, shortened: as §1

[22] = system: ryegrass, Italian (italian ryegrass, Lolium multiflorum); assay: as above; conditions: Postemergence, 10 days, 0 is no effect, 100 is complete control
Procedure, shortened: as §1

[23] = system: horseweed (Erigeron canadensis); assay: as above; conditions: Postemergence, 10 days, 0 is no effect, 100 is complete control
Procedure, shortened: as §1

[24] = system: galium (catchweed bedstraw, Galium aparine); assay: as above; conditions: Postemergence, 10 days, 0 is no effect, 100 is complete control
Procedure, shortened: as §1

[25] = system: barnyardgrass (Echinochloa crusgalli); assay: Test B flooded paddy test, visual plant response rating 0-100; conditions: 250 g ai/ha, Flood, applied to paddy water, evaluated after 13 days
Procedure, shortened: (§2)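 Paddy-water application: test compounds went directly into water flooded 3 cm above the soil surface, with plants at 2 leaves. After a 13-day greenhouse period, responses were judged by eye relative to controls; a dash marks an untested entry.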

rice (Oryza sativa) = assay: as above; conditions: 250 g ai/ha, Flood, applied to paddy water, evaluated after 13 days
Procedure, shortened: as §2

[26] = system: ducksalad (Heteranthera limosa); assay: as above; conditions: 250 g ai/ha, Flood, applied to paddy water, evaluated after 13 days
Procedure, shortened: as §2

[27] = system: sedge, umbrella (small-flower umbrella sedge, Cyperus difformis); assay: as above; conditions: 250 g ai/ha, Flood, applied to paddy water, evaluated after 13 days
Procedure, shortened: as §2

COC(=O)C1C=CC(NC(=O)C2(C)CN(c3cc(Cl)cc(Cl)c3)C(=O)O2)C1 (stereo not shown) [Compound 42]
Oat, Wild plant response rating (0 to 100 scale) ([1]; 125 g ai/ha): 90 | Oat, Wild plant response rating (0 to 100 scale) ([1]; 500 g ai/ha): 90 | Kochia plant response rating (0 to 100 scale) (kochia (Bassia scoparia) [2]; 125 g ai/ha): 90 | Kochia plant response rating (0 to 100 scale) (kochia (Bassia scoparia) [2]; 500 g ai/ha): 90 | Wheat plant response rating (0 to 100 scale) ([3]; 125 g ai/ha): 90 | Wheat plant response rating (0 to 100 scale) ([3]; 500 g ai/ha): 90 | Ragweed plant response rating (0 to 100 scale) ([4]; 125 g ai/ha): 20 | Ragweed plant response rating (0 to 100 scale) ([4]; 500 g ai/ha): 80 | Soybean plant response rating (0 to 100 scale) (soybean (Glycine max) [5]; 125 g ai/ha): 40 | Soybean plant response rating (0 to 100 scale) (soybean (Glycine max) [5]; 500 g ai/ha): 70 | Blackgrass plant response rating (0 to 100 scale) ([6]; 125 g ai/ha): 90 | Blackgrass plant response rating (0 to 100 scale) ([6]; 500 g ai/ha): 100 | Corn plant response rating (0 to 100 scale) (corn (Zea mays) [7]; 125 g ai/ha): 90 | Corn plant response rating (0 to 100 scale) (corn (Zea mays) [7]; 500 g ai/ha): 90 | Foxtail, Green plant response rating (0 to 100 scale) ([8]; 125 g ai/ha): 100 | Foxtail, Green plant response rating (0 to 100 scale) ([8]; 500 g ai/ha): 100 | Barnyardgrass plant response rating (0 to 100 scale) ([9]; 125 g ai/ha): 100 | Barnyardgrass plant response rating (0 to 100 scale) ([9]; 500 g ai/ha): 100 | Amaranth, Palmer plant response rating (0 to 100 scale) ([10]; 125 g ai/ha): 100 | Amaranth, Palmer plant response rating (0 to 100 scale) ([10]; 500 g ai/ha): 100 | Ryegrass, Italian plant response rating (0 to 100 scale) ([11]; 125 g ai/ha): 90 | Ryegrass, Italian plant response rating (0 to 100 scale) ([11]; 500 g ai/ha): 100 | Oat, Wild plant response rating (0 to 100 scale) ([12]; 125 g ai/ha): 90 | Oat, Wild plant response rating (0 to 100 scale) ([12]; 500 g ai/ha): 90 | Kochia plant response rating (0 to 100 scale) (kochia (Bassia scoparia) [13]; 125 g ai/ha): 80 | Kochia plant response rating (0 to 100 scale) (kochia (Bassia scoparia) [13]; 500 g ai/ha): 80 | Wheat plant response rating (0 to 100 scale) ([14]; 125 g ai/ha): 90 | Wheat plant response rating (0 to 100 scale) ([14]; 500 g ai/ha): 90 | Ragweed plant response rating (0 to 100 scale) ([15]; 125 g ai/ha): 70 | Ragweed plant response rating (0 to 100 scale) ([15]; 500 g ai/ha): 80 | Soybean plant response rating (0 to 100 scale) (soybean (Glycine max) [16]; 125 g ai/ha): 90 | Soybean plant response rating (0 to 100 scale) (soybean (Glycine max) [16]; 500 g ai/ha): 80 | Blackgrass plant response rating (0 to 100 scale) ([17]; 125 g ai/ha): 100 | Blackgrass plant response rating (0 to 100 scale) ([17]; 500 g ai/ha): 100 | Corn plant response rating (0 to 100 scale) (corn (Zea mays) [18]; 125 g ai/ha): 100 | Corn plant response rating (0 to 100 scale) (corn (Zea mays) [18]; 500 g ai/ha): 100 | Foxtail, Green plant response rating (0 to 100 scale) ([19]; 125 g ai/ha): 90 | Foxtail, Green plant response rating (0 to 100 scale) ([19]; 500 g ai/ha): 90 | Barnyardgrass plant response rating (0 to 100 scale) ([20]; 125 g ai/ha): 100 | Barnyardgrass plant response rating (0 to 100 scale) ([20]; 500 g ai/ha): 100 | Amaranth, Palmer / Pigweed, Palmer plant response rating (0 to 100 scale) ([21]; 125 g ai/ha): 100 | Amaranth, Palmer / Pigweed, Palmer plant response rating (0 to 100 scale) ([21]; 500 g ai/ha): 100 | Ryegrass, Italian plant response rating (0 to 100 scale) ([22]; 125 g ai/ha): 90 | Ryegrass, Italian plant response rating (0 to 100 scale) ([22]; 500 g ai/ha): 90 | Horseweed plant response rating (0 to 100 scale) ([23]; 125 g ai/ha): 80 | Horseweed plant response rating (0 to 100 scale) ([23]; 500 g ai/ha): 90 | Galium plant response rating (0 to 100 scale) ([24]; 125 g ai/ha): 70 | Galium plant response rating (0 to 100 scale) ([24]; 500 g ai/ha): 80 | Plant response rating, Barnyardgrass (0 to 100 scale, 0 is no effect and 100 is complete control) [25]: 95 | Plant response rating, Rice (0 to 100 scale, 0 is no effect and 100 is complete control) (rice (Oryza sativa)): 15 | Plant response rating, Ducksalad (0 to 100 scale, 0 is no effect and 100 is complete control) [26]: 90 | Plant response rating, Sedge, Umbrella (0 to 100 scale, 0 is no effect and 100 is complete control) [27]: 95

Reference: patent US20260285850A1, “SUBSTITUTED OXAZOLIDINONES AND IMIDAZOLINONES AS HERBICIDES” (FMC CORPORATION, priority 2023, published 2026)
